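Tested at 5 concentrations; 48 h exposure; 96-well plates; endpoints linearly interpolated, else capped at highest concentration. GI50 is the concentration that inhibits growth by half. Definition used: TGI = concentration required for complete inhibition of growth.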
Legend:
Assay in all cases: NCI tumour cell line growth inhibition, 48 h; in the data active = GI50 below about 0.43 µM; inactive = the rest
786-0 renal = test system: 786-0 renal
A498 renal = test system: A498 renal
A549 NSCLC = test system: A549 NSCLC
ACHN renal = test system: ACHN renal
BT-549 breast = test system: BT-549 breast
CAKI-1 renal = test system: CAKI-1 renal
CCRF-CEM leukemia = test system: CCRF-CEM leukemia
COLO 205 colon = test system: COLO 205 colon
DU-145 prostate = test system: DU-145 prostate
HCC-2998 colon = test system: HCC-2998 colon
HCT-116 colon = test system: HCT-116 colon
HCT-15 colon = test system: HCT-15 colon
HL-60(TB) leukemia = test system: HL-60(TB) leukemia
HOP-62 NSCLC = test system: HOP-62 NSCLC
HOP-92 NSCLC = test system: HOP-92 NSCLC
HS 578T breast = test system: HS 578T breast
HT29 colon = test system: HT29 colon
IGROV1 ovarian = test system: IGROV1 ovarian
K-562 leukemia = test system: K-562 leukemia
KM12 colon = test system: KM12 colon
LOX IMVI melanoma = test system: LOX IMVI melanoma
M14 melanoma = test system: M14 melanoma
MALME-3M melanoma = test system: MALME-3M melanoma
MCF7 breast = test system: MCF7 breast
MDA-MB-231 breast = test system: MDA-MB-231 breast
MDA-MB-435 = test system: MDA-MB-435
MOLT-4 leukemia = test system: MOLT-4 leukemia
NCI-H226 lung = test system: NCI-H226 lung
NCI-H23 lung = test system: NCI-H23 lung

O=C1NC(=NCCc2cccc(F)c2)S/C1=C\c1ccc2ncccc2c1
active: GI50 (MDA-MB-435) 0.312 µM
inactive: GI50 (786-0 renal) 7.15 µM | GI50 (A498 renal) 3.89 µM | GI50 (A549 NSCLC) 1.55 µM | GI50 (ACHN renal) 10.2 µM | GI50 (BT-549 breast) 10.6 µM | GI50 (CAKI-1 renal) 2.43 µM | GI50 (CCRF-CEM leukemia) 1.15 µM | GI50 (COLO 205 colon) 1.43 µM | GI50 (DU-145 prostate) 10.1 µM | GI50 (HCC-2998 colon) > 25 µM | GI50 (HCT-116 colon) 1.3 µM | GI50 (HCT-15 colon) 0.77 µM | GI50 (HL-60(TB) leukemia) 2.08 µM | GI50 (HOP-62 NSCLC) 2.15 µM | GI50 (HOP-92 NSCLC) > 25 µM | GI50 (HS 578T breast) 10.6 µM | GI50 (HT29 colon) 1.05 µM | GI50 (IGROV1 ovarian) 5.15 µM | GI50 (K-562 leukemia) 1.01 µM | GI50 (KM12 colon) 1.07 µM | GI50 (LOX IMVI melanoma) 1.75 µM | GI50 (M14 melanoma) 3.6 µM | GI50 (MALME-3M melanoma) 17.2 µM | GI50 (MCF7 breast) 0.766 µM | GI50 (MDA-MB-231 breast) > 25 µM | GI50 (MOLT-4 leukemia) 8.72 µM | GI50 (NCI-H226 lung) > 12.9 µM | GI50 (NCI-H23 lung) 19.2 µM
1.19 µM: TGI (MDA-MB-435)
> 12.9 µM: TGI (HL-60(TB) leukemia)
> 25 µM: TGI (786-0 renal) | TGI (A498 renal) | TGI (A549 NSCLC) | TGI (ACHN renal) | TGI (BT-549 breast) | TGI (CAKI-1 renal) | TGI (CCRF-CEM leukemia) | TGI (COLO 205 colon) | TGI (DU-145 prostate) | TGI (HCC-2998 colon) | TGI (HCT-116 colon) | TGI (HCT-15 colon) | TGI (HOP-62 NSCLC) | TGI (HOP-92 NSCLC) | TGI (HS 578T breast) | TGI (HT29 colon) | TGI (IGROV1 ovarian) | TGI (K-562 leukemia) | TGI (KM12 colon) | TGI (LOX IMVI melanoma) | TGI (M14 melanoma) | TGI (MALME-3M melanoma) | TGI (MCF7 breast) | TGI (MDA-MB-231 breast) | TGI (MOLT-4 leukemia) | TGI (NCI-H226 lung)
